According to patent publication US10226451B2, “Substituted bicyclic compounds as bromodomain inhibitors” (ZENITH EPIGENETICS LTD, priority 2013, dated 2019):

Tests used:
[1] = system: OCI-3 AML cells xenograft; test: In vivo efficacy, acute myeloid leukemia xenograft model using OCI-3 AML cells; design: species or system mouse; details: OCI-3 AML xenograft, nu/nu mice, oral dosing, tumor growth inhibition
Protocol: OCI-3 AML cells (DMSZ) were grown under standard cell culture conditions and (NCr) nu/nu fisol strain of female mice age 6-7 weeks were injected with 10×10^6 cells/animal in 100 μL PBS+100 μL Matrigel in the lower left abdominal flank. By approximately day 18-21 after OCI-3 AML cells injection, mice were randomized based on tumor volume (L×W×H)/2) of average ˜100-300 mm^3. Mice were dosed orally with compound at 30 mg/kg b.i.d on a continuous dosing schedule and at 2.5 to 45 mg/kg q.d. on a 5 day on and 2 day off dosing schedule in EA006 formulation at 10 mL/kg body weight dose volume. Tumor measurements were taken with electronic micro calipers and body weights measured on alternate days beginning from dosing period. The average tumor volumes, percent Tumor Growth Inhibition (TGI) and % change in body weights were compared relative to Vehicle control animals. The means, statistical analysis and the comparison between groups were calculated using Student's t-test in Excel.

[2] = target: T1, Brd4 bromodomain 1 (BRD4(1)) (Homo sapiens, UniProt O60885); test: Inhibition of tetra-acetylated histone H4 binding to Brd4 bromodomain 1 (HTRF/FRET); details: tetra-acetylated histone H4 peptide, His-tagged bromodomain 200 nM, 2 h
T1 construct: made in house; host or cells: E. coli BL21(DE3)
Procedure, shortened: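 N-terminally His-tagged bromodomain (200 nM), expressed in E. coli and purified by Ni affinity and size exclusion, was incubated with biotinylated tetra-acetylated H4 peptide (25-50 nM), Eu-cryptate streptavidin and XL665 anti-His in HEPES pH 7.4 buffer with 0.2% DMSO. Reactions ran 2 h at room temperature. IC50 came from the 665/620 nm fluorescence decrease.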

[3] = system: c-myc in Human AML MV4-11 cells; test: Inhibition of c-MYC expression (mRNA, real-time PCR) in MV4-11 cells; assay type: cell-based; details: 3 h, mRNA by real-time PCR
Procedure, shortened: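 Cells at 2.5×10^4 per well in IMDM/10% FBS were treated with rising compound concentrations or 0.1% DMSO for 3 h at 37° C., in triplicate. cMYC mRNA was measured by one-step TaqMan qRT-PCR, normalised to cyclophilin, and expressed as fold expression relative to control.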

hIL-6 mRNA in U937 cells = test: Inhibition of hIL-6 mRNA transcription in LPS-stimulated U937 cells; assay type: cell-based; details: Homo sapiens, U-937, PMA-differentiated U937 cells, LPS 1 ug/mL, 3 h, read-out: IL-6 activity
Procedure, shortened: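 U937 cells were differentiated to macrophages with 60 ng/mL PMA for 3 days, pretreated 1 h with compound in 0.1% DMSO, then stimulated with 1 ug/mL E. coli LPS for 3 h at 37° C. hIL-6 mRNA was quantified by one-step TaqMan RT-qPCR, normalized to cyclophilin, as fold expression versus control.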

Cc1noc(C)c1-c1cc(-c2c(C)nn(C)c2C)c2c(c1)[nH]c(=O)n2C [Example Compound 9, 5-(3,5-dimethylisoxazol-4-yl)-1-methyl-7-(1,3,5-trimethyl-1H-pyrazol-4-yl)-1H-benzo[d]imidazol-2(3H)-one]
In vivo activity [1]: Active | IC50 [2]: ≤ 300 nM | IC50 [3]: ≤ 300 nM | IC50 (hIL-6 mRNA in U937 cells): ≤ 300 nM
